In ChEMBL document CHEMBL6092147, “Design of inhibitors of SARS-CoV-2 papain-like protease deriving from GRL0617: Structure-activity relationships” (Bioorg Med Chem, 2024):
pIC50: −log10 of the molar value.

Biological target: Replicase polyprotein 1ab (Severe acute respiratory syndrome coronavirus 2, UniProt P0DTD1)
Assay: Inhibition of SARS-CoV-2 Main protease using Dabcyl-KLSAVLQSGFRKM-Edans-NH2 as substrate incubated for 30 mins by FRET based enzymatic assay

Q: Cc1ccc(OCCN(C)C)cc1C(=O)N[C@H](C)c1cc(-c2cnn(CCN(C)C)c2)cc(-c2cccs2)c1 was tested. Which pIC50 did it give?
A: 6.96

Q: With Cc1ccc(OCCN(C)C)cc1C(=O)N[C@H](C)c1cc(-c2cnn(CCO)c2)cc(-c2ccnn2C)c1 as the compound, how does the pIC50 read?
A: 6.85

Q: How did the pIC50 turn out when Cc1ccc(OCCN(C)C)cc1C(=O)N[C@H](C)c1cc(-c2cnn(C)c2)cc(-c2cnn(CC(N)=O)c2)c1 was run?
A: 7.15

Q: Cc1ccc(OCCN(C)C)cc1C(=O)N[C@H](C)c1cc(-c2cnn(CCO)c2)cc(-c2cccs2)c1 was tested. Which pIC50 did it give?
A: 6.96

Q: How did the pIC50 turn out when Cc1ccc(OCCN(C)C)cc1C(=O)N[C@H](C)c1cc(-c2cnn(CCO)c2)cc(-c2ccc(CN3CCCC3)s2)c1 was run?
A: 7.15

Q: With Cc1ccc(OCCN(C)C)cc1C(=O)N[C@H](C)c1cc(-c2cnn(CC3CCOCC3)c2)cc(-c2ccn(C)n2)c1 as the compound, how does the pIC50 read?
A: 7.10

Q: With Cc1ccc(OCCN(C)C)cc1C(=O)N[C@H](C)c1cc(-c2cnn(C(C)C)c2)cc(-c2cnn(C(F)F)c2)c1 as the compound, how does the pIC50 read?
A: 6.80

Q: Cc1ccc(OCCN(C)C)cc1C(=O)N[C@H](C)c1cc(-c2cnn(CC(N)=O)c2)cc(-c2cccs2)c1 was tested. Which pIC50 did it give?
A: 7.10

Q: With Cc1ccc(OCCN(C)C)cc1C(=O)N[C@H](C)c1cc(-c2cnn(C)c2)cc(-c2cnn(CC3CCOCC3)c2)c1 as the compound, how does the pIC50 read?
A: 7.15

Q: How did the pIC50 turn out when Cc1ccc(OCCN(C)C)cc1C(=O)N[C@H](C)c1cc(-c2ccn(C)n2)cc(-c2ccn(C3CC3)n2)c1 was run?
A: 6.92

Q: How did the pIC50 turn out when Cc1ccc(OCCN(C)C)cc1C(=O)N[C@H](C)c1cc(-c2ccc(N3CCOCC3)nc2)cc(-c2cnn(C)c2)c1 was run?
A: 7.10

Q: COCCn1cc(-c2cc(-c3cnn(CC(N)=O)c3)cc([C@@H](C)NC(=O)c3cc(OCCN(C)C)ccc3C)c2)cn1 was tested. Which pIC50 did it give?
A: 7.05

Q: Cc1ccc(OCCN(C)C)cc1C(=O)N[C@H](C)c1cc(-c2cn[nH]c2)cc(-c2cccs2)c1 was tested. Which pIC50 did it give?
A: 7.10

Q: Cc1ccc(OCCN(C)C)cc1C(=O)N[C@H](C)c1cc(-c2cnn(CC(F)(F)F)c2)cc(-c2cccs2)c1 was tested. Which pIC50 did it give?
A: 7.15

Q: With COCCn1cc(-c2cc(-c3cnn(CCO)c3)cc([C@@H](C)NC(=O)c3cc(OCCN(C)C)ccc3C)c2)cn1 as the compound, how does the pIC50 read?
A: 7.00

Q: How did the pIC50 turn out when Cc1ccc(OCCN(C)C)cc1C(=O)N[C@H](C)c1cc(-c2cnn(C(F)F)c2)cc(-c2cnn(C3CC3)c2)c1 was run?
A: 7.05

Q: With Cc1ccc(OCCN(C)C)cc1C(=O)N[C@H](C)c1cc(-c2ccc(N3CCOCC3)nc2)cc(-c2cccs2)c1 as the compound, how does the pIC50 read?
A: 7.05

Q: COCCn1cc(-c2cc(-c3cnn(C(F)F)c3)cc([C@@H](C)NC(=O)c3cc(OCCN(C)C)ccc3C)c2)cn1 was tested. Which pIC50 did it give?
A: 6.96

Q: How did the pIC50 turn out when Cc1ccc(OCCN(C)C)cc1C(=O)N[C@H](C)c1cc(-c2cnn(CCO)c2)cc(-c2cnn(CCN(C)C)c2)c1 was run?
A: 6.85

Q: With COCCn1cc(-c2cc(-c3cnn(CC(F)F)c3)cc([C@@H](C)NC(=O)c3cc(OCCN(C)C)ccc3C)c2)cn1 as the compound, how does the pIC50 read?
A: 6.70

Q: How did the pIC50 turn out when COCCn1cc(-c2cc(-c3cncs3)cc([C@@H](C)NC(=O)c3cc(OCCN(C)C)ccc3C)c2)cn1 was run?
A: 6.96

Q: How did the pIC50 turn out when Cc1ccc(OCCN(C)C)cc1C(=O)N[C@H](C)c1cc(-c2cnn(C(C)C)c2)cc(-c2ccn(C)n2)c1 was run?
A: 6.96

Q: With Cc1ccc(OCCN(C)C)cc1C(=O)N[C@H](C)c1cc(-c2ccn(C)n2)cc(-c2ccn(C)n2)c1 as the compound, how does the pIC50 read?
A: 6.85

Q: With COCCn1cc(-c2cc(-c3cccs3)cc([C@@H](C)NC(=O)c3cc(OCCN(C)C)ccc3C)c2)cn1 as the compound, how does the pIC50 read?
A: 6.96

Q: Cc1ccc(OCCN(C)C)cc1C(=O)N[C@H](C)c1cc(-c2cnn(C(F)F)c2)cc(-c2ccn(C)n2)c1 was tested. Which pIC50 did it give?
A: 7.05

Q: How did the pIC50 turn out when Cc1ccc(OCCN(C)C)cc1C(=O)N[C@H](C)c1cc(-c2cnn(C(F)F)c2)cc(-c2cccs2)c1 was run?
A: 7.15

Q: Cc1ccc(OCCN(C)C)cc1C(=O)N[C@H](C)c1cc(-c2cnn(C)c2)cc(-c2cnn(CCO)c2)c1 was tested. Which pIC50 did it give?
A: 7.05

Q: COCCn1cc(-c2cc(-c3ccn(C)n3)cc([C@@H](C)NC(=O)c3cc(OCCN(C)C)ccc3C)c2)cn1 was tested. Which pIC50 did it give?
A: 7.05

Q: How did the pIC50 turn out when Cc1ccc(OCCN(C)C)cc1C(=O)N[C@H](C)c1cc(-c2cnn(CCO)c2)cc(-c2cnn(C(F)F)c2)c1 was run?
A: 7.05

Q: With Cc1ccc(OCCN(C)C)cc1C(=O)N[C@H](C)c1cc(-c2cnn(CCN3CCOCC3)c2)cc(-c2cccs2)c1 as the compound, how does the pIC50 read?
A: 7.22

Q: Cc1ccc(OCCN(C)C)cc1C(=O)N[C@H](C)c1cc(-c2cnn(C)c2)cc(-c2cccs2)c1 was tested. Which pIC50 did it give?
A: 6.82
